Measured values as given in PubChem BioAssay (NCI).
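Where inhibition never reached the appropriate level, the endpoint shown equals the highest concentration tested. Otherwise, values were interpolated linearly from a five-concentration, 48-hour dose response in 96-well plates. The concentration for full growth arrest is given as TGI.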

What was measured:
Assay in all cases: growth of human tumour cells (NCI), 48 h
786-0 renal = system: 786-0 renal
A498 renal = system: A498 renal
A549 NSCLC = system: A549 NSCLC
ACHN renal = system: ACHN renal
CAKI-1 renal = system: CAKI-1 renal
COLO 205 colon = system: COLO 205 colon
DLD-1 colon = system: DLD-1 colon
EKVX NSCLC = system: EKVX NSCLC
HCC-2998 colon = system: HCC-2998 colon
HCT-116 colon = system: HCT-116 colon
HCT-15 colon = system: HCT-15 colon
HL-60(TB) leukemia = system: HL-60(TB) leukemia
HOP-62 NSCLC = system: HOP-62 NSCLC
HOP-92 NSCLC = system: HOP-92 NSCLC
HT29 colon = system: HT29 colon
IGROV1 ovarian = system: IGROV1 ovarian
K-562 leukemia = system: K-562 leukemia
KM12 colon = system: KM12 colon
KM20L2 colon = system: KM20L2 colon
LOX IMVI melanoma = system: LOX IMVI melanoma
LXFL 529 NSCLC = system: LXFL 529 NSCLC
M14 melanoma = system: M14 melanoma
M19-MEL melanoma = system: M19-MEL melanoma
MALME-3M melanoma = system: MALME-3M melanoma
MOLT-4 leukemia = system: MOLT-4 leukemia
NCI-H226 lung = system: NCI-H226 lung
NCI-H23 lung = system: NCI-H23 lung
NCI-H460 lung = system: NCI-H460 lung
OVCAR-3 ovarian = system: OVCAR-3 ovarian
OVCAR-4 ovarian = system: OVCAR-4 ovarian
OVCAR-5 ovarian = system: OVCAR-5 ovarian
OVCAR-8 ovarian = system: OVCAR-8 ovarian
RPMI-8226 leukemia = system: RPMI-8226 leukemia
RXF 393 renal = system: RXF 393 renal
RXF-631 renal = system: RXF-631 renal
SF-268 CNS = system: SF-268 CNS
SF-295 CNS = system: SF-295 CNS
SF-539 CNS = system: SF-539 CNS
SK-MEL-2 melanoma = system: SK-MEL-2 melanoma
SK-MEL-28 melanoma = system: SK-MEL-28 melanoma
SK-MEL-5 melanoma = system: SK-MEL-5 melanoma
SK-OV-3 ovarian = system: SK-OV-3 ovarian
SN12C renal = system: SN12C renal
SNB-19 CNS = system: SNB-19 CNS
SNB-75 CNS = system: SNB-75 CNS
SNB-78 CNS = system: SNB-78 CNS
SR leukemia = system: SR leukemia
SW-620 colon = system: SW-620 colon
TK-10 renal = system: TK-10 renal
U251 CNS = system: U251 CNS
UACC-257 melanoma = system: UACC-257 melanoma
UACC-62 melanoma = system: UACC-62 melanoma
UO-31 renal = system: UO-31 renal
XF 498 CNS = system: XF 498 CNS
CCRF-CEM leukemia = system: CCRF-CEM leukemia
DMS 114 small cell lung = system: DMS 114 small cell lung
DMS 273 small cell lung = system: DMS 273 small cell lung

O=C(COc1ccc2c(=O)cc(-c3ccc(Cl)cc3)oc2c1)N1CCN(c2ccccc2)CC1
TGI (786-0 renal): > 100 µM
TGI (A498 renal): > 100 µM
TGI (A549 NSCLC): > 100 µM
TGI (ACHN renal): > 100 µM
TGI (CAKI-1 renal): > 100 µM
TGI (COLO 205 colon): > 100 µM
TGI (DLD-1 colon): > 100 µM
TGI (EKVX NSCLC): > 100 µM
TGI (HCC-2998 colon): > 100 µM
TGI (HCT-116 colon): > 100 µM
TGI (HCT-15 colon): > 100 µM
TGI (HL-60(TB) leukemia): > 100 µM
TGI (HOP-62 NSCLC): > 100 µM
TGI (HOP-92 NSCLC): > 100 µM
TGI (HT29 colon): > 100 µM
TGI (IGROV1 ovarian): > 100 µM
TGI (K-562 leukemia): > 100 µM
TGI (KM12 colon): > 100 µM
TGI (KM20L2 colon): > 100 µM
TGI (LOX IMVI melanoma): > 100 µM
TGI (LXFL 529 NSCLC): > 100 µM
TGI (M14 melanoma): > 100 µM
TGI (M19-MEL melanoma): > 100 µM
TGI (MALME-3M melanoma): > 100 µM
TGI (MOLT-4 leukemia): > 100 µM
TGI (NCI-H226 lung): > 100 µM
TGI (NCI-H23 lung): > 100 µM
TGI (NCI-H460 lung): > 100 µM
TGI (OVCAR-3 ovarian): > 100 µM
TGI (OVCAR-4 ovarian): > 100 µM
TGI (OVCAR-5 ovarian): > 100 µM
TGI (OVCAR-8 ovarian): > 100 µM
TGI (RPMI-8226 leukemia): > 100 µM
TGI (RXF 393 renal): > 100 µM
TGI (RXF-631 renal): > 100 µM
TGI (SF-268 CNS): > 100 µM
TGI (SF-295 CNS): > 100 µM
TGI (SF-539 CNS): > 100 µM
TGI (SK-MEL-2 melanoma): > 100 µM
TGI (SK-MEL-28 melanoma): > 100 µM
TGI (SK-MEL-5 melanoma): > 100 µM
TGI (SK-OV-3 ovarian): > 100 µM
TGI (SN12C renal): > 100 µM
TGI (SNB-19 CNS): > 100 µM
TGI (SNB-75 CNS): > 100 µM
TGI (SNB-78 CNS): > 100 µM
TGI (SR leukemia): > 100 µM
TGI (SW-620 colon): > 100 µM
TGI (TK-10 renal): > 100 µM
TGI (U251 CNS): > 100 µM
TGI (UACC-257 melanoma): > 100 µM
TGI (UACC-62 melanoma): > 100 µM
TGI (UO-31 renal): > 100 µM
TGI (XF 498 CNS): > 100 µM

Cc1[nH]c2ccccc2c1-c1n[nH]c(=O)c2ccccc12
TGI (786-0 renal): > 100 µM
TGI (A498 renal): 63.5 µM
TGI (A549 NSCLC): > 100 µM
TGI (ACHN renal): > 100 µM
TGI (CAKI-1 renal): > 100 µM
TGI (CCRF-CEM leukemia): > 100 µM
TGI (DLD-1 colon): > 100 µM
TGI (DMS 114 small cell lung): 58.7 µM
TGI (DMS 273 small cell lung): 72.9 µM
TGI (EKVX NSCLC): > 100 µM
TGI (HCC-2998 colon): > 100 µM
TGI (HCT-116 colon): 35.8 µM
TGI (HCT-15 colon): > 100 µM
TGI (HL-60(TB) leukemia): 55.6 µM
TGI (HOP-62 NSCLC): 50.3 µM
TGI (HT29 colon): > 100 µM
TGI (IGROV1 ovarian): > 100 µM
TGI (K-562 leukemia): > 100 µM
TGI (KM12 colon): > 100 µM
TGI (KM20L2 colon): 92.6 µM
TGI (LXFL 529 NSCLC): > 100 µM
TGI (M14 melanoma): > 100 µM
TGI (M19-MEL melanoma): > 100 µM
TGI (MALME-3M melanoma): 74.4 µM
TGI (MOLT-4 leukemia): 81.3 µM
TGI (NCI-H226 lung): 85.3 µM
TGI (NCI-H23 lung): > 100 µM
TGI (NCI-H460 lung): > 100 µM
TGI (OVCAR-3 ovarian): 67.3 µM
TGI (OVCAR-4 ovarian): > 100 µM
TGI (OVCAR-5 ovarian): > 100 µM
TGI (OVCAR-8 ovarian): > 100 µM
TGI (RPMI-8226 leukemia): 74.7 µM
TGI (RXF 393 renal): 37.1 µM
TGI (RXF-631 renal): 66.1 µM
TGI (SF-295 CNS): 91.8 µM
TGI (SF-539 CNS): > 100 µM
TGI (SK-MEL-2 melanoma): > 100 µM
TGI (SK-MEL-28 melanoma): > 100 µM
TGI (SK-MEL-5 melanoma): 41 µM
TGI (SK-OV-3 ovarian): 72.1 µM
TGI (SNB-75 CNS): 57.9 µM
TGI (SNB-78 CNS): > 100 µM
TGI (SW-620 colon): > 100 µM
TGI (TK-10 renal): > 100 µM
TGI (U251 CNS): > 100 µM
TGI (UACC-257 melanoma): > 100 µM
TGI (UACC-62 melanoma): > 100 µM
TGI (UO-31 renal): 61.9 µM
TGI (XF 498 CNS): 76.2 µM
